Counter-ions that a name gives are not always drawn.
Assays:
[1] = test system: endotoxin-induced septic shock; assay: Mouse endotoxin lethality model (D-galactosamine and LPS); type: in vivo, CF1 mice; settings: 100 mg/kg i.p., pretreated at t=-1 hr; death observed over 8-72 hours
Protocol: Using the method of Silverstein, (J. Exp. Med. 173, 357 (1991)) a mouse endotoxin lethality model may be used to determine if a compound of formula (1) has the ability to inhibit endotoxin-induced septic shock which is dependent on the production of Tumor Necrosis Factor-α (TNF-α). CF1 mice pretreated at time (t)=-1 hr with drug are challenged with 18 mg of D-glactoseamine and 50 ng of LPS, then observed for death over an 8-72 hour period.

[2] = test system: Rat macrophage antigen presentation and the subsequent production of Interleukin-2; assay: Regulation of macrophage antigen presentation (mBSA) to rat T-cell hybridoma, Interleukin-2 measured; type: cell-based, Lewis (LEW/N) rat
Protocol: Using the method of Ku (Cellular Immunology 130,(1990)) and a Lewis (LEW/N) rat T-cell hybridoma reactive with the protein methylated bovine serum albumin (mBSA), the ability of a compound of formula (1) to regulate M.phi. antigen presentation in vitro may be measured. Peritoneal macrophages obtained from LEW/N rats are plated into tissue culture and treated with 100 ug of mBSA and drug. A control is prepared similarly. After a period of 18 hours the cells are washed and incubated with the T-cell hybridoma for an additional 12 hours. Supernatants from these cultures are obtained and measured for content of Interleukin-2, a T-cell derived lymphokine which is produced by activated T-cells.

Nc1ncnc2c1ncn2[C@@H]1CC[C@@H](O)C1 [(1R,3R)-TRANS-1(9-ADENYL)CYCLOPENTAN-3-OL HYDROCHLORIDE]
protection against endotoxin lethality [1]: protects against endotoxin lethality | T-cell activation / antigen presentation and Interleukin-2 production (in words) ([2]; 0.1 to 100 uM): inhibits T-cell activation | inhibition at 0.1 µM ([2]; Rattus norvegicus, Macrophage, In Vitro Concentration 0.1 uM, IL-2 production): 7.6% | inhibition at 1 µM ([2]; Rattus norvegicus, Macrophage, In Vitro Concentration 1.0 uM, IL-2 production): 30.9% | inhibition at 10 µM ([2]; Rattus norvegicus, Macrophage, In Vitro Concentration 10.0 uM, IL-2 production): 48.7% | inhibition at 100 µM ([2]; Rattus norvegicus, Macrophage, In Vitro Concentration 100.0 uM, IL-2 production): 55.3%

Reference: patent US5916892A, “Trans cyclopentanyl deazaadenyl analogs useful as immunosuppressants” (Hoechst Marion Roussel, Inc., priority 1997, dated 1999)
